Laboratory results published in the OPERA property sets (Mansouri et al. 2018).
Peptide text beside a SMILES is read from it.

Row | SMILES | logP
1 | CN(C=O)c1ccccc1 | 1.09
2 | OCC1OC(OCc2ccccc2)C(O)C(O)C1O (centres undefined) | -0.7
3 | Nc1ccc(CCO)cc1 | 0.1
4 | COC(=O)c1ccc(NC(C)=O)cc1 | 1.79
5 | FC(F)F | 0.64
6 | O=C(OCCc1ccccc1)c1ccccc1 | 4.01
7 | CC(F)F | 0.75
8 | Nc1cn[nH]c1 | -1.09
9 | Cc1ccc2c(c1)c([N+](=O)[O-])cc[n+]2[O-] | 1.43
10 | CCOCC | 0.89
11 | c1cncnc1 | -0.4
12 | CCCC(=NOCC)C1C(=O)CC2(CCC(C)CC2)OC1=O (centres undefined) | 4.07
13 | CCCCCC(C)O (centres undefined) | 2.31
14 | CC(C)[C@@H](N)Cc1ccccc1 | 2.59
15 | CC(=O)ONc1ccnc2ccccc12 | 0.97
16 | N#Cc1cccc(CC(=O)O)c1 | 1.18
17 | CCN(CC)CCNC(=O)c1ccccc1 | 1.99
18 | O=C(O)[C@@H]1CCCN1 | -2.54
19 | CNC(=O)c1ccccc1C(=O)c1ccccc1 | 2.09
20 | NNC(=O)c1cccc(O)c1 | -0.08
21 | O=C(c1ccco1)C(O)c1ccco1 (centres undefined) | 0.54
22 | C=CC(=O)OCC | 1.32
23 | Nc1cc2c3ccccc3ccc2c2ccccc12 | 4.99
24 | Nc1nc(C=Cc2ccc([N+](=O)[O-])o2)no1 | 1.3
25 | CSCS(=O)CC(C)NC(=O)C=Cc1c(C)[nH]c(=O)[nH]c1=O (centres undefined) | -0.7

Row | SMILES | logP
26 | CN(C)C(=O)c1ccco1 | 0.41
27 | CCOC(C)OCC | 0.84
28 | Cc1ccccc1Cl | 3.42
29 | COc1ccccc1NCC(N)=O | 0.78
30 | CCN(CC)C(=O)c1cccnc1 | 0.33
31 | Nc1nc2nc[nH]c2c(=S)[nH]1 | -0.07
32 | O=C(O)C=CC(=O)c1ccccc1 | 1.53
33 | C=CCBr | 1.79
34 | CCOP(=S)(Oc1ccc(C#N)cc1)c1ccccc1 (centres undefined) | 4.29
35 | COC1=CC(=O)c2ccccc2C1=O | 1.35
36 | CNC(=O)Oc1ccc(C#N)cc1 | 0.95
37 | CCOc1ccc2nc(S(N)(=O)=O)sc2c1 | 2.01
38 | CNC(=O)Oc1ccc(C(C)=O)cc1 | 1.01
39 | COc1cc2c(c3c1c(=O)c1ccccc1n3C)C=CC(C)(C)O2 | 3.67
40 | CCc1ccccc1O | 2.47
41 | CCCCOCC1CO1 (centres undefined) | 0.63
42 | C1OC1CN1CCN(CC2CO2)CC1 (centres undefined) | -0.84
43 | NC12CC3CC(CC(C3)C1)C2 | 2.44
44 | COC(=O)CCC(=O)OC | 0.35
45 | Nc1ncnc2nc(-c3ccccc3)[nH]c12 | 2.31
46 | CC1CN(N=O)CC(C)O1 (centres undefined) | 0.32
47 | c1ccc2c(c1)CCc1ccccc1-2 | 4.52
48 | O=c1cc[nH]c2ccccc12 | 0.58
49 | O=[N+]([O-])c1ccc(OC2OC(CO)C(O)C(O)C2O)cc1 (centres undefined) | -0.44
50 | CN(C)C(=O)OCc1ccc(Cl)cc1 | 2.93

Row | SMILES | logP
51 | O=C1NC(=O)C(c2cccnc2)N1 (centres undefined) | -0.95
52 | CC(=O)OC[C@H]1O[C@@H](n2ncc(=O)[nH]c2=O)[C@H](OC(C)=O)[C@@H]1OC(C)=O | -0.2
53 | CCCC(=O)Nc1ccccc1 | 2.05
54 | CCCCCNc1nc(NC(C)C)nc(SC(F)F)n1 | 5.2
55 | NC(=O)c1ccc(I)cc1 | 1.99
56 | CCCCCCCCOc1ccccc1NC(=O)OCCN1CCCCC1 | 6.36
57 | NC(=O)Nc1ccccc1Cl | 1.27
58 | CC#CC | 1.46
59 | NC(=O)C1CCCN1C(=O)C(Cc1cn(C(=O)OC2CCCCC2)cn1)NC(=O)C1CCC(=O)N1 (centres undefined) | 0.6
60 | O=C1CCC(c2ccccc2)(C2CCN(Cc3ccccc3)CC2)C(=O)N1 (centres undefined) | 3.55
61 | CC(C)c1ccc(OC(=O)c2ccc(N)cc2O)cc1 | 4.12
62 | CS(=O)c1ccccc1 (centres undefined) | 0.55
63 | CCCOC | 1.21
64 | CN(C)c1ccc2cccnc2c1 | 2.71
65 | COc1ccc2nc(N)[nH]c2c1 | 0.57
66 | CCOc1ccc(CC(=O)O)cc1 | 1.95
67 | CCc1cccnc1 | 1.66
68 | O=C(O)c1cc(Cl)cc(Cl)c1 | 3
69 | O=c1[nH]c(=O)c2[nH]cnc2[nH]1 | -0.73
70 | COC1CC(OC2CCC3(C)C(CCC4C3CCC3(C)C(C5=CC(=O)OC5)C(OC(C)=O)CC43O)C2)OC(C)C1O (centres undefined) | 2.53
71 | CNC1=C(N2CC2)C(=O)C(NC)=C(N2CC2)C1=O | 0.13
72 | O=P(c1ccccc1)(c1ccccc1)c1ccccc1 | 2.83
73 | CCCCF | 2.58
74 | CCCCOC(=O)c1ccc(C(=O)OCCCC)cc1 | 5.53
75 | O=C(O)c1cccc(F)c1 | 2.15

Row | SMILES | logP
76 | CCOc1cccc(NC(C)=O)c1 | 1.82
77 | OCCN1CCN(CCCN2c3ccccc3Sc3ccc(Cl)cc32)CC1 | 4.2
78 | CC12CCC3C(CCC4(O)CC(O)CCC34C=O)C1(O)CCC2C1=CC(=O)OC1 (centres undefined) | 0.64
79 | NNc1ccc([N+](=O)[O-])cc1 | 1.41
80 | CC(C)NNC(=O)COc1ccc(Cl)cc1 | 2.02
81 | NS(=O)(=O)c1ccc(O)cc1 | 0.06
82 | CC(=O)c1cccc(F)c1 | 1.77
83 | NNC(=O)c1ccccc1[N+](=O)[O-] | -0.54
84 | COc1ccc(CCNCC(O)COc2cccc(C)c2)cc1OC (centres undefined) | 3
85 | O=CN1CCCC1 | -0.32
86 | COC(=O)c1cccc(S(I)=C(N(C)C)N(C)C)c1 (centres undefined) | -0.75
87 | Oc1ccc(Cc2ccc(O)cc2)cc1 | 2.91
88 | CC(C)S[C@@H]1O[C@H](CO)[C@H](O)[C@H](O)[C@H]1O | -1.26
89 | COc1ccc2c(c1)nc(N)n2C | 0.87
90 | CCC(C)NP(=O)(OC)Oc1cc(Cl)c(Cl)cc1Cl (centres undefined) | 3.99
91 | COc1ccc2cnccc2c1 | 2.22
92 | O=C(O)COc1cccc([N+](=O)[O-])c1 | 1.37
93 | O=C(O)c1ccccc1F | 1.77
94 | N#C/C=C/c1ccccc1 | 1.96
95 | COc1cc2c(c(OC)c1OC)-c1ccc(O)c(=O)cc1[C@@H](NC(=O)C(F)(F)F)CC2 | 1.82
96 | S=c1[nH]c2ccccc2[nH]1 | 1.66
97 | COCc1ccc(C(=O)O)cc1 | 1.76
98 | CCOc1ccccc1 | 2.51
99 | O=S(=O)(c1ccccc1)c1cccc2cccnc12 | 2.33
100 | Cc1ccccc1OCC(O)CO (centres undefined) | 1.41

Row | SMILES | logP
101 | O=C(O)CCC(=O)c1ccc(-c2ccccc2)cc1 | 3.2
102 | O=C(O)COc1ccc2c(c1)CCC2 | 2.33
103 | Nc1c([N+](=O)[O-])cccc1[N+](=O)[O-] | 1.79
104 | FC(Cl)(Cl)Cl | 2.53
105 | C=CCNCC=C | 1.11
106 | Cn1nnnc1SCC1=C(C(=O)O)N2C(=O)C(NC(=O)CSCC#N)C2SC1 (centres undefined) | -0.62
107 | O=Cc1cccc([N+](=O)[O-])c1 | 1.47
108 | COc1cc([C@@H]2c3cc4c(cc3[C@H](O)[C@H]3COC(=O)[C@H]23)OCO4)cc(OC)c1OC | 2.01
109 | Cc1nc(-c2ccccc2)c2ccccc2n1 | 3.1
110 | CCCC(=NOCC)C1C(=O)CC(C)(C)OC1=O (centres undefined) | 2.56
111 | CCN(CC)c1cc(C(=O)NN)ccn1 | 1.12
112 | CCCOCc1ccccc1NC(=O)OCCN1CCCCC1 | 3.34
113 | O=S(=O)(c1ccccc1)c1ccc2ncccc2c1 | 2.57
114 | [N-]=[N+]=Nc1ccccc1 | 2.59
115 | Nc1ccc(CO)cc1 | -0.22
116 | CCC(C)NC(=O)C(=Cc1ccccc1)SC (centres undefined) | 3.03
117 | C=CCOc1noc2c1CNCC2 | 0.56
118 | Cc1cccc(C)n1 | 1.68
119 | CN(C)C(=O)OCc1ccc(F)cc1 | 2.3
120 | Oc1cccnc1 | 0.48
121 | NC(=O)CCCc1ccccn1 | -0.01
122 | Cc1[nH]cnc1CSCCNC(=N)NCCSCc1nc[nH]c1C | 1.34
123 | COC(=O)C(Cl)(Cl)Cl | 2.03
124 | COc1c(Cl)ccc(Cl)c1C(=O)O | 2.21
125 | Oc1ccc(-c2ccccc2)cc1 | 3.2

Row | SMILES | logP
126 | CCCCOC(=O)c1ccc(S(N)(=O)=O)cc1 | 2.34
127 | CC(=O)c1cccc(C(C)=O)c1 | 1.43
128 | c1ccc2c(c1)CCO2 | 2.14
129 | NC(=O)COc1ccccc1 | 0.76
130 | COP(=S)(OC)Oc1ccc(Sc2ccc(OP(=S)(OC)OC)cc2)cc1 | 5.96
131 | O=[N+]([O-])c1ccc(F)cc1 | 1.8
132 | CN(C)C(N(C)C)=S(I)c1ccccc1I (centres undefined) | 0.3
133 | OCC(O)CO | -1.76
134 | CCN(CC)C(=S)SSC(=S)N(CC)CC | 3.88
135 | COc1ccc(O)c2ncccc12 | 2.06
136 | Cc1ccc(NC2=NCCN2)c(Cl)c1 | 1.8
137 | CI | 1.51
138 | NC(=O)CCl | -0.53
139 | CCCCCCCCCCNC(=O)c1[nH]nc(C)c1[N+](=O)[O-] | 4.48
140 | Cc1cc(Br)cnc1NS(=O)(=O)c1ccc(N)cc1 | 2.05
141 | COC(=O)c1ccc(C(=O)OC)cc1 | 2.25
142 | Nc1ccc(C(=O)O)c(Br)c1 | 1.49
143 | Cc1ccc(NC(=O)N(C)C)cc1Cl | 2.41
144 | C#CCC(O)c1cccnc1 (centres undefined) | 1.21
145 | CCn1c(=O)c2nc(-c3ccc(S(=O)(=O)NCCN(C)C)cc3)[nH]c2n(CC)c1=O | 2.57
146 | Clc1cnc(Cl)c(Cl)c1 | 3.11
147 | O=C(Nc1ccccc1)Nc1ccc(Cl)c(Cl)c1 | 4.7
148 | CCc1cccc(OC(=O)NC)c1 | 2.2
149 | Cc1cc(CC(=O)O)ccc1OCc1ccccc1 | 3.37
150 | Brc1ccc(-c2ccc(Br)cc2)cc1 | 5.72

Row | SMILES | logP
151 | O=C(Nc1ccccc1)NC1CC(O)C(CO)OC1O (centres undefined) | -0.61
152 | Cc1ccnc(NS(=O)(=O)c2ccc(N)cc2)n1 | 0.14
153 | Cc1ccc(S(I)=C(N(C)C)N(C)C)cc1Cl (centres undefined) | 0.45
154 | CC(=O)Nc1ccc(OCC(O)CNC(C)C)cc1 (centres undefined) | 0.79
155 | CC(C)c1nnc(S)n(N)c1=O | 1.22
156 | O=[N+]([O-])c1cccs1 | 1.55
157 | OCCCc1ccncc1 | 0.58
158 | CCCCOC(=O)c1ccc(N)cc1 | 2.87
159 | Nc1ccc(C(=O)Oc2cccc(F)c2)c(O)c1 | 3.42
160 | CCSCC | 1.95
161 | CC=CC(C)=O | 0.52
162 | NNC(=O)c1ccnc(N)c1 | -0.98
163 | CN1CC[C@]23c4c5ccc(O)c4O[C@H]2C(=O)CC[C@@]3(O)[C@H]1C5 | 0.83
164 | Cc1cccc(Cl)c1 | 3.28
165 | O=C(O)COc1cccc(O)c1 | 0.76
166 | O=Cc1ccco1 | 0.41
167 | CC[C@H](C)[C@H](NC(=O)[C@H](Cc1c[nH]c2ccccc12)NC(C)=O)C(=O)NCC(N)=O (Ac-Trp-Ile-Gly-NH2) | 0.62
168 | NS(=O)(=O)NCCc1ccccc1 | 0.81
169 | C=CCO | 0.17
